Results as given in patent US20200339604A1, “PYRAZOLOPYRIMIDINE COMPOUNDS AS JAK INHIBITORS” (Genentech, Inc., priority 2018, published 2020).
Where two headings read alike, the source gives them in different places.

Legend:
[1] = tested on: JAK1-dependent STAT6 phosphorylation downstream of IL-13 stimulation, BEAS-2B human bronchial epithelial cells; assay: JAK1 pathway assay in cell lines: IL-13 stimulated STAT6 phosphorylation in BEAS-2B cells (MSD); type: cell-based; settings: IL-13 stimulation 15 min at EC90, read-out: IL-13 p-STAT6 BEAS-2B IC50
Procedure: JAK1 Pathway Assay in Cell Lines was Carried Out as Follows:
Inhibitor potency (EC50) was determined in cell-based assays designed to measure JAK1 dependent STAT phosphorylation. As noted above, inhibition of IL-4, IL-13, and IL-9 signaling by blocking the Jak/Stat signaling pathway can alleviate asthmatic symptoms in pre-clinical lung inflammation models (Mathew et al., 2001, J Exp Med 193(9): 1087-1096; Kudlacz et. al., 2008, Eur J. Pharmacol 582(1-3): 154-161).
In one assay approach, TF-1 human erythroleukemia cells obtained from the American Type Culture Collection (ATCC; Manassas, Va.) were used to measure JAK1-dependent STAT6 phosphorylation downstream of IL-13 stimulation. Prior to use in the assays, TF-1 cells were starved of GM-CSF overnight in OptiMEM medium (Life Technologies, Grand Island, N.Y.) supplemented with 0.5% charcoal/dextran stripped fetal bovine serum (FBS), 0.1 mM non-essential amino acids (NEAA), and 1 mM sodium pyruvate. The assays were run in 384-well plates in serum-free OptiMEM medium using 300,000 cells per well. In a second assay approach, BEAS-2B human bronchial epithelial cells obtained from ATCC were plated at 100,000 cells per well of a 96-well plate one day prior to the experiment. The BEAS-2B assay was run in complete growth medium (bronchial epithelial basal medium plus bulletkit; Lonza; Basel, Switzerland).
Test compounds were serially diluted 1:2 in DMSO and then diluted 1:50 in medium just before use. Diluted compounds were added to the cells, for a final DMSO concentration of […], and incubated for 30 m (for the TF-1 assay) or […] (for the BEAS-2B assay) at 37° C. Then, cells were stimulated with human recombinant cytokine at their respective EC90 concentrations, as previously determined for each individual lot. Cells were stimulated with IL-13 (R&D Systems, Minneapolis, Minn.) for 15 min at 37° C. The TF-1 cell reactions were stopped by the direct addition of 10× lysis buffer (Cell Signaling Technologies, Danvers, Mass.), whereas the BEAS-2B cell incubations were halted by the removal of medium and addition of 1× lysis buffer. The resultant samples were frozen in the plates at −80° C. Compound mediated inhibition of STAT6 phosphorylation was measured in the cell lysates using MesoScale Discovery (MSD) technology (Gaithersburg, Md.).

[2] = biological target: T1, isolated recombinant JAK2 kinase domain (Homo sapiens, UniProt O60674); assay: JAK enzyme assay, JAK2 kinase domain (Caliper LabChip); type: biochemical; settings: 0.2 nM JAK2, ATP 25 μM, Morrison tight binding model
T1 construct: isolated recombinant JAK1 and JAK2 kinase domain
T1 sequence (O60674 849-1124 limits assumed): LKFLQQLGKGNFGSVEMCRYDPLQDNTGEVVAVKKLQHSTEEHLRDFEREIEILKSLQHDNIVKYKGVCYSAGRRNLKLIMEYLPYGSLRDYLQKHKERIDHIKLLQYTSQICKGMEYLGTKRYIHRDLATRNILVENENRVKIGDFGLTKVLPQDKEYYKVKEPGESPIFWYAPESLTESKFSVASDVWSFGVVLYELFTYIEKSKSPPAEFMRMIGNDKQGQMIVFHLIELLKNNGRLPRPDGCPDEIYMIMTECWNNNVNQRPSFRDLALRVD
Procedure: (§1) JAK Enzyme Assays were Carried Out as Follows:
(§2) The activity of the isolated recombinant JAK1 and JAK2 kinase domain was measured by monitoring phosphorylation of a peptide derived from JAK3 ([…] fluorescently labeled on the N-terminus with 5-carboxyfluorescein) using the Caliper LabChip® technology (Caliper Life Sciences, Hopkinton, Mass.). To determine inhibition constants (K), compounds were diluted serially in DMSO and added to 50 μL kinase reactions containing purified enzyme (1.5 nM JAK1, or 0.2 nM JAK2), 100 mM HEPES buffer (pH 7.2), 0.015% Brij-35, 1.5 μM peptide substrate, ATP (25 μM), 10 mM MgCl2, 4 mM DTT at a final DMSO concentration of 2%.
(§3) Reactions were incubated at 22° C. in 384-well polypropylene microtiter plates for 30 minutes and then stopped by addition of 25 µL of an EDTA containing solution (100 mM HEPES buffer (pH 7.2), 0.015% Brij-35, 150 mM EDTA), resulting in a final EDTA concentration of 50 mM. After termination of the kinase reaction, the proportion of phosphorylated product was determined as a fraction of total peptide substrate using the Caliper LabChip® 3000 according to the manufacturer's specifications. K values were then determined using the Morrison tight binding model (Morrison, J. F., Biochim. Biophys. Acta. 185:269-296 (1969); William, J. W. and Morrison, J. F., Meth. Enzymol., 63:437-467 (1979)) modified for ATP-competitive inhibition [Ki=Ki, app/(1+[ATP]/Km,app)].

[3] = biological target: T2, isolated recombinant JAK1 kinase domain (Homo sapiens, UniProt P23458); assay: JAK enzyme assay, JAK1 kinase domain (Caliper LabChip); type: biochemical; settings: 1.5 nM JAK1, ATP 25 μM, Morrison tight binding model
T2 construct: isolated recombinant JAK1 and JAK2 kinase domain
T2 sequence (P23458 875-1153 limits assumed): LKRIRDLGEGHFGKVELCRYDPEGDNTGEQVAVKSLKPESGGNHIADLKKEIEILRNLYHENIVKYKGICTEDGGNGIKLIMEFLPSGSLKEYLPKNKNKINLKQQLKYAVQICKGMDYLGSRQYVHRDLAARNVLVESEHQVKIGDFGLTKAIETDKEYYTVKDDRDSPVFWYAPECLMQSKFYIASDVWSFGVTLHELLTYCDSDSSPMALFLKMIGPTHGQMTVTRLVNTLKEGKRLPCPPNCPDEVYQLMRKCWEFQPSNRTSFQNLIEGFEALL
Procedure: as §1, §2, §3

SMILES | Ki [2] [nM] | Ki [3] [nM] | IC50 [1] [nM] | IC50 ([1]; Homo sapiens, BEAS-2B, […]) [nM]
CN1CCC(n2cc(NC(=O)c3cnn4cccnc34)c(-c3cc(OC(F)F)ccc3OC(F)F)n2)C1=O (single isomer, unassigned) [Example 9, N-[3-[2,5-bis(difluoromethoxy)phenyl]-1-(1-methyl-2-oxo-pyrrolidin-3-yl)pyrazol-4-yl]pyrazolo[1,5-a]pyrimidine-3-carboxamide] | 1.1 | 2.1 | 67 | 
CN1CCC(n2cc(NC(=O)c3cnn4cccnc34)c(-c3cc4c(cc3OC(F)F)NCCS4)n2)C1=O (single isomer, unassigned) [Example 13, N-[3-[6-(difluoromethoxy)-3,4-dihydro-2H-1,4-benzothiazin-7-yl]-1-(1-methyl-2-oxo-pyrrolidin-3-yl)pyrazol-4-yl]pyrazolo[1,5-a]pyrimidine-3-carboxamide] | 0.43 | 0.88 | 290 | 
O=C(Nc1cn(C2CCN(CCN3CCOCC3)C2=O)nc1-c1cc(Cl)ccc1OC(F)F)c1cnn2cccnc12 (single isomer, unassigned) [Example 14, N-[3-[5-chloro-2-(difluoromethoxy)phenyl]-1-[1-(2-morpholinoethyl)-2-oxo-pyrrolidin-3-yl]pyrazol-4-yl]pyrazolo[1,5-a] pyrimidine-3-carboxamide] | 1.4 | 1.2 |  | 79
CN1CCC(n2cc(NC(=O)c3cnn4cccnc34)c(-c3cc4c(cc3OC(F)F)NCCO4)n2)C1=O (single isomer, unassigned) [Example 11, N-[3-[6-(difluoromethoxy)-3,4-dihydro-2H-1,4-benzoxazin-7-yl]-1-(1-methyl-2-oxo-pyrrolidin-3-yl)pyrazol-4-yl]pyrazolo[1,5-a]pyrimidine-3-carboxamide] | 0.5 | 1.2 | 230 | 
O=C(Nc1cn(C2CCCC2=O)nc1-c1cc(Cl)ccc1OC(F)F)c1cnn2cccnc12 (racemic) [Example 35, N-[3-[5-chloro-2-(difluoromethoxy)phenyl]-1-(2-oxocyclopentyl)pyrazol-4-yl]pyrazolo[1,5-a]pyrimidine-3-carboxamide] | 0.45 | 0.79 |  | 16
CN1CCC(n2cc(NC(=O)c3cnn4cccnc34)c(-c3cc(SC(F)F)ccc3OC(F)F)n2)C1=O (single isomer, unassigned) [Example 19, N-[3-[2-(difluoromethoxy)-5-(difluoromethyl-sulfanyl)phenyl]-1-(1-methyl-2-oxo-pyrrolidin-3-yl)pyrazol-4-yl]pyrazolo[1,5-a]pyrimidine-3-carboxamide] | 0.55 | 2.5 | 59 | 
O=C(Nc1cn(C2CCN(CCN3CCOCC3)C2=O)nc1-c1cc(Cl)ccc1OC(F)F)c1cnn2cccnc12 (single isomer, unassigned) [Example 15, N-[3-[5-chloro-2-(difluoromethoxy)phenyl]-1-[1-(2-morpholinoethyl)-2-oxo-pyrrolidin-3-yl]pyrazol-4-yl]pyrazolo[1,5-a]pyrimidine-3-carboxamide] | 1 | 4.4 |  | 

Further lines, with some results ahead:

Ki [2] [nM] | Ki [3] [nM] | SMILES | IC50 [1] [nM] | IC50 ([1]; Homo sapiens, BEAS-2B, […]) [nM]
0.4 | 0.7 | O=C(Nc1cn(C2CCOC2=O)nc1-c1cc(SC(F)F)ccc1OC(F)F)c1cnn2cccnc12 (single isomer, unassigned) [Example 31, N-[3-[2-(difluoromethoxy)-5-(difluoromethyl-sulfanyl)phenyl]-1-(2-oxotetrahydrofuran-3-yl)pyrazol-4-yl]pyrazolo[1,5-a]pyrimidine-3-carboxamide] | 16 | 
0.4 | 0.78 | O=C(Nc1cn([C@H]2CCNC2=O)nc1-c1cc(Cl)ccc1OC(F)F)c1cnn2cccnc12 (single isomer, unassigned) [Example 4, N-[3-[5-chloro-2-(difluoromethoxy)phenyl]-1-(2-oxopyrrolidin-3-yl)pyrazol-4-yl]pyrazolo[1,5-a]pyrimidine-3-carboxamide] |  | 24
0.056 | 0.092 | O=C(Nc1cn(C2CCOC2=O)nc1-c1cc2c(cc1OC(F)F)NCCS2)c1cnn2cccnc12 (single isomer, unassigned) [Example 34, N-[3-[6-(difluoromethoxy)-3,4-dihydro-2H-1,4-benzothiazin-7-yl]-1-(2-oxotetrahydrofuran-3-yl)pyrazol-4-yl]pyrazolo[1,5-a]pyrimidine-3-carboxamide] |  | 
0.4 | 0.21 | CN1CC[C@H](n2cc(NC(=O)c3cnn4cccnc34)c(-c3cc(Cl)ccc3OC(F)F)n2)C1=O (stereo in doubt) [Example 2, N-[3-[5-chloro-2-(difluoromethoxy)phenyl]-1-[rac-(3S)-1-methyl-2-oxo-pyrrolidin-3-yl]pyrazol-4-yl]pyrazolo[1,5-a]pyrimidine-3-carboxamide] |  | 12
0.31 | 0.84 | CSc1ccc(OC(F)F)c(-c2nn(C3CCN(C)C3=O)cc2NC(=O)c2cnn3cccnc23)c1 (single isomer, unassigned) [Example 7, N-[3-[2-(difluoromethoxy)-5-methylsulfanyl-phenyl]-1-(1-methyl-2-oxo-pyrrolidin-3-yl)pyrazol-4-yl]pyrazolo[1,5-a]pyrimidine-3-carboxamide] | 42 | 
0.24 | 0.18 | CSc1ccc(OC(F)F)c(-c2nn(C3CCN(C)C3=O)cc2NC(=O)c2cnn3cccnc23)c1 (single isomer, unassigned) [Example 6, N-[3-[2-(difluoromethoxy)-5-methylsulfanyl-phenyl]-1-(1-methyl-2-oxo-pyrrolidin-3-yl)pyrazol-4-yl]pyrazolo[1,5-a]pyrimidine-3-carboxamide] | 11 | 
0.42 | 0.6 | O=C(Nc1cn(C2CCOC2=O)nc1-c1cc2c(cc1OC(F)F)NCCO2)c1cnn2cccnc12 (single isomer, unassigned) [Example 38, N-[3-[6-(difluoromethoxy)-3,4-dihydro-2H-1,4-benzoxazin-7-yl]-1-(2-oxotetrahydrofuran-3-yl)pyrazol-4-yl]pyrazolo[1,5-a]pyrimidine-3-carboxamide] |  | 
0.11 | 0.15 | CN1CCC(n2cc(NC(=O)c3cnn4cccnc34)c(-c3cc4c(cc3OC(F)F)NCCS4)n2)C1=O (single isomer, unassigned) [Example 12] |  | 
0.095 | 0.17 | O=C(Nc1cn(C2CCOC2=O)nc1-c1cc2c(cc1OC(F)F)NCCS2)c1cnn2cccnc12 (single isomer, unassigned) [Example 33, N-[3-[6-(difluoromethoxy)-3,4-dihydro-2H-1,4-benzothiazin-7-yl]-1-(2-oxotetrahydrofuran-3-yl)pyrazol-4-yl]pyrazolo[1,5-a]pyrimidine-3-carboxamide] |  | 
0.29 | 0.32 | O=C(Nc1cn(C2CCOC2=O)nc1-c1cc2c(cc1OC(F)F)NCCO2)c1cnn2cccnc12 (single isomer, unassigned) [Example 39, N-[3-[6-(difluoromethoxy)-3,4-dihydro-2H-1,4-benzoxazin-7-yl]-1-(2-oxotetrahydrofuran-3-yl)pyrazol-4-yl]pyrazolo[1,5-a]pyrimidine-3-carboxamide; formic acid] |  | 
